The numbers were not newly measured in US6436414B1, “Active ingredient combinations or adducts of biotin and/or biotin derivatives and cyclodextrins and use of such active ingredient combinations in cosmetic preparations” (Beiersdorf AG, priority 1999, dated 2002), which cites them from elsewhere.

For this data set the following is noted: according to the literature.

Turning to `O=C(O)CCCC[C@@H]1SC[C@@H]2NC(=O)N[C@@H]21` [biotin, D-cis-hexahydro-2-oxothieno[3,4-d]imidazole-4-valeric acid], the “solubility limit of biotin in aqueous solution” value is “about 0.04%”.
